Here are results for five molecules from patent US20150175644A1, “MANNOSE DERIVATIVES AS ANTAGONISTS OF BACTERIAL ADHESION” (UNIVERSITY OF BASEL, priority 2009, published 2015).

One data set concerns E. coli (strain RS 218). In words: Preliminary clotting assay (E. coli-mediated clotting of C. albicans cells). Format: cell-based. The following applies: minimal concentration that prevents clotting of C. albicans cells by E. coli RS 218; triplicate. The procedure: Overnight cultures of C. albicans (strain ATCC 60193) and E. coli (strain RS 218) are prepared by suspending colony material from agar plates in 10 ml trypticase soy broth (TSB) each and incubated for 16-18 h at 37° C., the culture of E. coli without shaking, but the culture of C. albicans with agitation on a horizontal shaker at 200 rpm. The cells of 2 ml of each culture are washed twice with 1 ml phosphate buffered saline (PBS) by centrifugation (10 min at 2500×g), discarding the supernatant and re-suspension of the cell pellet in fresh PBS. After the last washing step, the optical density at 600 nm is measured and adjusted to 5.0 for C. albicans (corresponding to approx. 5×10^7 viable cells/ml) and to 3.0 for E. coli (corresponding to approx. 5×10^9 viable cells/ml). […] Each test well is supplied with 33 μl PBS or the test solution of the desired concentration, and 33 μl of E. coli suspension is added and mixed by slightly tapping the plate. After 5 min 33 μl of C. albicans suspension is added to give a total volume of 100 μl per well. As a negative clumping control, one well is left without addition of E. coli. The plate is incubated for 20 min at 37° C. on a horizontal shaker at 150 rpm and the cells are allowed to settle for 10 min at r.t. before the wells are inspected with the help of a magnifier for visual clumps. For each substance the minimal concentration that prevents clotting of C. albicans cells is noted. Each experiment is performed in triplicate.

Data set [1] relates to GFP tagged E. coli strain UTI89. In words: Flow cytometry inhibition assay (adherence of GFP tagged UTI89 to bladder cell line 5637). The data set is classed as cell-based. The note with it: for IC50: Escherichia coli; for rIC50: ratio of IC50 to IC50 of reference HM, cell line 5637. How it is done: The GFP tagged E. coli strain UTI89 is statically incubated in Luria-Bertani broth for 24 h, washed twice and adjusted to an optical density at 600 nm (OD600) between 2.0 and 3.0. The human epithelial bladder carcinoma cell line 5637 was grown in RPMI 1640 medium, supplemented with 10% fetal calf serum (FCS), 100 U/ml penicillin and 100 μg/ml streptomycin at 37° C., 5% CO2 in 24-well plates. Cells were infected with 200 μl bacterial suspension (multiplicity of infection of 1:50 (cell:bacteria)), premixed with 25 μl of antagonists at different concentrations. To homogenize the infection, plates were centrifuged at room temperature for 3 min at 600 g. After an incubation of 1.5 h at 37° C., infected cells were washed four times with RPMI 1640 medium and suspended in ice-cold PBS for 5-20 min. Samples were measured with a CyAn ADP flow cytometer (Becton Dickinson, San Jose, Calif.) and analyzed by gating on the eukaryotic cells based on forward (FSC) and side scatter (SSC). A total of 10^4 cells were measured per sample. Data were acquired in a linear mode for the SSC and logarithmic mode for FSC and the green fluorescent channel FL1-H (e.g. GFP). The mean fluorescence intensity (MFI) of FL1-H was counted as a surrogate marker for the adherence of bacteria. Quantification of adhesion was evaluated with the FlowJo software 9.0.1 (Tree Star, Inc., Ashland, Oreg., USA). IC50 values were determined by plotting the concentration of the antagonist in a logarithmic mode versus the MFI and by fitting the curve with the prism software (GraphPad, inhibition curve, variable slope). The relative IC50 (rIC50) is the ratio of the IC50 of the test compound to the IC50 of the reference compound HM (n-heptyl α-D-mannopyranoside.
(In general: A flow cytometer gives signals particle by particle.)

A short description of data set [2]: In vivo pharmacokinetics, single dose, urine and plasma sampling. Further details: species or system mouse. The note with it: single i.v. application of 50 mg/kg, applied antagonist detected. The procedure: The aim is the identification of FimH antagonists suitable for intravenous (i.v.) or preferably peroral (p.o.) applications. Before infection studies in a mouse disease model could be performed, the in vivo pharmacokinetic parameters (Cmax, AUC) had to be determined, to ensure the antagonists availability in the target organ (bladder). Single-dose pharmacokinetic studies were performed by i.v. and p.o. application of the FimH antagonists at a concentration of 50 mg/kg followed by urine and plasma sampling. […] Antagonists were applied i.v. by injection into the tail vein and p.o. using a gavage followed by blood and urine sampling (10 μL) after 6 min, 30 min, 1 h, 2 h, 4 h, 6 h, 8 h and 24 h. Before analysis, proteins in blood and urine samples were precipitated using methanol and centrifuged for 11 min at 13,000 rpm. The supernatant was transferred into a 96-well plate and analyzed by LC-MS.

In the next data set the test system is E. coli strain UTI89. In words: Aggregometer assay (disaggregation of E. coli UTI89 from guinea pig erythrocytes). Format: cell-based. The note with it: relative to heptyl α-D-mannopyranoside (rIC50=1). How it is done:
In analogy to N. Firon, I. Ofek, N. Sharon, Biochem. Biophys. Res. Comm. 1982, 105, 1426-1432, the following assay is conducted: E. coli strain UTI89 is statically incubated in Luria-Bertani broth for 24 h, washed twice and adjusted to an optical density at 600 nm (OD600) of 4.0. The percentage of aggregation of UTI89 to guinea pig erythrocytes (GPE) is quantitatively measured using an APACT 4004 aggregometer (Endotell AG, Allschwil, Switzerland) at 740 nm, 37° C. under stirring at 1000 rpm. For calibration, first the protein poor plasma (PPP) is measured using PBS 1% and set as 100% aggregation, followed by the protein rich plasma (PRP) using GPE at an OD600 of 4.0, set as 0% aggregation. After calibration, the measurement is initiated using 250 μL GPE and 50 μL bacterial suspension. Following the aggregation phase of 600 s, 25 μL of the antagonists at different concentrations are added and disaggregation is monitored over 1400 s. The FimH-deleted mutant of E. coli UTI89 is used to proof FimH-specific GPE agglutination. For evaluation, the area under the disaggregation curve (AUC) is calculated and compared to the reference, heptyl α-D-mannopyranoside (see Table 2). The activities are reported as rel. IC50 (rIC50) with heptyl α-D-mannopyranoside as reference compound (rIC50=1).

Regarding `O=[N+]([O-])c1ccc2c(ccn2-c2ccc(O[C@H]3O[C@H](CO)[C@@H](O)[C@H](O)[C@@H]3O)c(F)c2)c1` [Compound 34, 2-Fluoro-4-(5-nitroindol-1-yl)phenyl α-D-mannopyranoside], the “Average conc. to prevent clotting” value with E. coli (strain RS 218) was 0.833 µM.
In the case of `O=[N+]([O-])c1ccc2c(ccn2-c2ccc(O[C@H]3O[C@H](CO)[C@@H](O)[C@H](O)[C@@H]3O)c(Cl)c2)c1` [Compound 29b, 2-Chloro-4-(5-nitroindol-1-yl)phenyl α-D-mannopyranoside], in data set [1], the IC50 (as a rule, the point on the concentration scale where inhibition reaches its midpoint) is 0.59 ± 0.045 µM and the rIC50 stood at 0.15. Besides, in the data set on E. coli (strain RS 218), the “Average conc. to prevent clotting” value was determined as 0.556 µM.
In data set [2] (plasma), `CCCCCCCO[C@H]1O[C@H](CO)[C@@H](O)[C@H](O)[C@@H]1O` [HM, heptyl α-D-mannopyranoside, reference compound] showed an AUC0-24 i.v. of 34.3 ± 33.3 µg·h/mL. The molecule also showed an AUC0-24 i.v. in data set [2] (urine) of 2469.3 ± 636.4 µg·h/mL. Further, in data set [1], 3.9 ± 1.6 µM corresponded to half-maximal inhibition (IC50) and the rIC50 was determined as 1. Also, the “Average conc. to prevent clotting” value in the data set on E. coli (strain RS 218) was 42 µM. Moreover, the “rIC50 (measured in the aggregometer assay)” value in the data set on E. coli strain UTI89 came out at 1.
In the case of `OC[C@H]1O[C@H](Oc2ccc(-n3ccc4ccccc43)cc2F)[C@@H](O)[C@@H](O)[C@@H]1O` [Compound 32, 2-Fluoro-4-(indol-1-yl)phenyl α-D-mannopyranoside], the “Average conc. to prevent clotting” value in the data set on E. coli (strain RS 218) came to 5.556 µM.
Turning to `OC[C@H]1O[C@H](Oc2ccc(-n3ccc4ccccc43)cc2Cl)[C@@H](O)[C@@H](O)[C@@H]1O` [Compound 29a, 2-Chloro-4-(indol-1-yl)phenyl α-D-mannopyranoside], the “Average conc. to prevent clotting” value with E. coli (strain RS 218) stood at 1.111 µM.
